The values below come from patent publication US8889854B2, “C-17 bicyclic amines of triterpenoids with HIV maturation inhibitory activity” (priority 2012, dated 2014).

SMILES strings stand for the structures.

For the first assay, the system named is recombinant NL4-3 virus (Renilla luciferase in nef, Gag P373S; NLRluc). The assay is described as follows: HIV Cell Culture Assay (luciferase reporter virus in MT-2 cells). It counts as cell-based. The settings on record: Renilla, NL43, MT-2 cells infected for 4-5 days with NLRluc recombinants; luciferase activity. The procedure: MT-2 cells and 293T cells were obtained from the NIH AIDS Research and Reference Reagent Program. MT-2 cells were propagated in RPMI 1640 media supplemented with 10% heat inactivated fetal bovine serum, […]. The 293T cells were propagated in DMEM media supplemented with 10% heat inactivated fetal bovine serum (FBS), 100 units/mL penicillin G and 100 μg/mL streptomycin. The proviral DNA clone of NL4-3 was obtained from the NIH AIDS Research and Reference Reagent Program. A recombinant NL4-3 virus, in which a section of the nef gene from NL4-3 was replaced with the Renilla luciferase gene, was used as a reference virus. In addition, residue Gag P373 was converted to P373S. Briefly, the recombinant virus was prepared by transfection of the altered proviral clone of NL4-3. Transfections were performed in 293T cells using LipofectAMINE PLUS from Invitrogen (Carlsbad, Calif.), according to manufacturer's instruction. The virus was titered in MT-2 cells using luciferase enzyme activity as a marker. Luciferase was quantitated using the Dual Luciferase kit from Promega (Madison, Wis.), with modifications to the manufacturer's protocol. The diluted Passive Lysis solution was pre-mixed with the re-suspended Luciferase Assay Reagent and the re-suspended Stop & Glo Substrate (2:1:1 ratio). Fifty (50) μL of the mixture was added to each aspirated well on assay plates and luciferase activity was measured immediately on a Wallac TriLux (Perkin-Elmer). Antiviral activities of inhibitors toward the recombinant virus were quantified by measuring luciferase activity in cells infected for 4-5 days with NLRluc recombinants in the presence serial dilutions of the inhibitor. Table 1 is the key for the data in Table 2.
Background: Reporter assays use an easily measured gene product as a stand-in for the process of interest.
With `C=C(C)[C@@H]1CC[C@]2(NCCN3C[C@@H]4C[C@H]3CS4(=O)=O)CC[C@]3(C)[C@H](CC[C@@H]4[C@@]5(C)CC=C(C6=CCC(C(=O)O)CC6)C(C)(C)[C@@H]5CC[C@]43C)[C@@H]12` (stereo partly drawn) [Example B2, 4-((1R,3aS,5aR,5bR,7aR,11aS,11bR,13aR,13bR)-3a-((2((1S,4S)-2,2-dioxido-2-thia-5-azabicyclo[2.2.1]heptan-5-yl)ethyl)amino)-5a,5b,8,8,11a-pentamethyl-1-(prop-1-en-2-yl)-2,3,3a,4,5,5a,5b,6,7,7a,8,11,11a,11b,12,13,13a,13b-octadecahydro-1H-cyclopenta[a]chrysen-9-yl)cyclohex-3-enecarboxylic acid], the EC50 (in general, the concentration giving half of the maximal effect) was 1.18 nM.

As for `C=C(C)[C@@H]1CC[C@]2(NCCN3CCC4(CC3)COC4)CC[C@]3(C)[C@H](CC[C@@H]4[C@@]5(C)CC=C(c6ccc(C(=O)O)cc6)C(C)(C)[C@@H]5CC[C@]43C)[C@@H]12` [Example B3], the EC50 turned out to be 3.82 nM.

As to `C=C(C)[C@@H]1CC[C@]2(NCCN3C[C@@H]4C[C@H]3CS4(=O)=O)CC[C@]3(C)[C@H](CC[C@@H]4[C@@]5(C)CC=C(C6=CC[C@@H](C(=O)O)CC6)C(C)(C)[C@@H]5CC[C@]43C)[C@@H]12` [Example B8, (S)-4-((1R,3aS,5aR,5bR,7aR,11aS,11bR,13aR,13bR)-3a-((2-((1S,4S)-2,2-dioxido-2-thia-5-azabicyclo[2.2.1]heptan-5-yl)ethyl)amino)-5a,5b,8,8,11a-pentamethyl-1-(prop-1-en-2-yl)-2,3,3a,4,5,5a,5b,6,7,7a,8,11,11a,11b,12,13,13a,13b-octadecahydro-1H-cyclopenta[a]chrysen-9-yl)cyclohex-3-enecarboxylic acid], the EC50 came to 1.3 nM.

As to `C=C(C)[C@@H]1CC[C@]2(NCCN3C[C@@H]4C[C@H]3CO4)CC[C@]3(C)[C@H](CC[C@@H]4[C@@]5(C)CC=C(C6=CC[C@H](C(=O)O)CC6)C(C)(C)[C@@H]5CC[C@]43C)[C@@H]12` [Example B9, (R)-4-((1R,3aS,5aR,5bR,7aR,11aS,11bR,13aR,13bR)-3a-((2-((1S,4S)-2-oxa-5-azabicyclo[2.2.1]heptan-5-yl)ethyl)amino)-5a,5b,8,8,11a-pentamethyl-1-(prop-1-en-2-yl)-2,3,3a,4,5,5a,5b,6,7,7a,8,11,11a,11b,12,13,13a,13b-octadecahydro-1H-cyclopenta[a]chrysen-9-yl)cyclohex-3-enecarboxylic acid], the EC50 came to 1.69 nM.

The assay is the same for the next values; noted with them: Renilla, NL43, MT-2 cells infected for 4-5 days with NLRluc recombinants; luciferase activity; reported as group A/B.
Turning to `C=C(C)[C@@H]1CC[C@]2(NCCN3C[C@@H]4C[C@H]3CO4)CC[C@]3(C)[C@H](CC[C@@H]4[C@@]5(C)CC=C(C6=CC[C@@H](C(=O)O)CC6)C(C)(C)[C@@H]5CC[C@]43C)[C@@H]12` [Example B10, (S)-4-((1R,3 aS,5aR,5bR,7aR,11aS,11bR,13 aR,13bR)-3a-((2-((1S,4S)-2-oxa-5-azabicyclo[2.2.1]heptan-5-yl)ethyl)amino)-5a,5b,8,8,11a-pentamethyl-1-(prop-1-en-2-yl)-2,3,3a,4,5,5a,5b,6,7,7a,8,11,11a,11b,12,13,13a,13b-octadecahydro-1H-cyclopenta[a]chrysen-9-yl)cyclohex-3-enecarboxylic acid], the EC50 is less than 100 nM.

`C=C(C)[C@@H]1CC[C@]2(NCCN3C[C@@H]4C[C@H]3CS4(=O)=O)CC[C@]3(C)[C@H](CC[C@@H]4[C@@]5(C)CC=C(C6=CC[C@H](C(=O)O)CC6)C(C)(C)[C@@H]5CC[C@]43C)[C@@H]12` [Example B11, (R)-4-((1R,3aS,5aR,5bR,7aR,11aS,11bR,13aR,13bR)-3a-((2-((1S,4S)-2,2-dioxido-2-thia-5-azabicyclo[2.2.1]heptan-5-yl)ethyl)amino)-5a,5b,8,8,11a-pentamethyl-1-(prop-1-en-2-yl)-2,3,3a,4,5,5a,5b,6,7,7a,8,11,11a,11b,12,13,13a,13b-octadecahydro-1H-cyclopenta[a]chrysen-9-yl)cyclohex-3-enecarboxylic acid]: the EC50 was less than 100 nM.

On to `C=C(C)[C@@H]1CC[C@]2(NCCN3C[C@@H]4C[C@H]3CS4(=O)=O)CC[C@]3(C)[C@H](CC[C@@H]4[C@@]5(C)CC[C@H](OC(=O)CC(C)(C)C(=O)O)C(C)(C)[C@@H]5CC[C@]43C)[C@@H]12` [Example B12, 4-(((1R,3aS,5aR,5bR,7aR,9S,11aR,11bR,13aR,13bR)-3a-((2-((1S,4S)-2,2-dioxido-2-thia-5-azabicyclo[2.2.1]heptan-5-yl)ethyl)amino)-5a,5b,8,8,11a-pentamethyl-1-(prop-1-en-2-yl)icosahydro-1H-cyclopenta[a]chrysen-9-yl)oxy)-2,2-dimethyl-4-oxobutanoic acid], for which the EC50 is less than 100 nM.
